Legend:
[1] = system: Interleukin-2 (IL-2) production/release in Jurkat T cells; experiment: Jurkat IL-2 Production Assay (PHA-stimulated, IL-2 AlphaLisa); type: cell-based; settings: Homo sapiens, PHA 15 μg/ml, 22 h, inhibition of IL-2 production
Method in brief: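 Jurkat E6-1 cells (5*10^5/well, DMEM/F12 with 10% FCS) pretreated 30 min with compound, then stimulated 22 h with 15 μg/ml PHA at 37 °C. IC50 from 8-point 1:3.16 dilution starting at 10 μM.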

CRAC channel = target: T1, CRAC channel (Homo sapiens, UniProt Q96D31); experiment: HEK Calcium Influx Assay (FLIPR), inhibition of store-operated Ca2+ entry after thapsigargin store depletion; type: cell-based; settings: 10 μM compound, HEK293 cells, read-out: % inhib. [@ 10 μM] FLIPR
T1 construct: endogenous in cells; host or cells: HEK293 (ECACC), untransfected
Method in brief: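 HEK293 cells loaded with Calcium-4 dye in Ca2+-free HBS (pH 7.4), stores depleted with 2 μM thapsigargin for 10 min (100 μM EGTA); after 3 mM CaCl2 re-addition and 15 min steady-state, compounds added and FLIPR signal averaged 9.5–10 min post-dose. IC50 from 8-point 1:3.16 dilutions from 10 μM, normalised to DMSO and non-depleted wells.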

T1 sequence (Q96D31 whole entry): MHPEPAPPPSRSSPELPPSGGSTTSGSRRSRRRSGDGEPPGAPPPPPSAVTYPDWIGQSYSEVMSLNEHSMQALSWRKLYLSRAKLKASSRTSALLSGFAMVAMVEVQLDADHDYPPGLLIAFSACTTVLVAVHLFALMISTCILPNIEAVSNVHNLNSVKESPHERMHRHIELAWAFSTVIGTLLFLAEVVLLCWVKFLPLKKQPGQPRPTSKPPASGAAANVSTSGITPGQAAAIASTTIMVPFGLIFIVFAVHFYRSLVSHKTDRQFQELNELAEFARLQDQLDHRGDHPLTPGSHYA

| SMILES | IC50 [1] | inhibition at 10 µM (CRAC channel) |
| --- | --- | --- |
| Cc1cc(S(C)(=O)=O)ncc1N1CCc2[nH]c(-c3ccccc3F)cc2C1 [Example 79, 2-(2-Fluorophenyl)-5-(4-methyl-6-methylsulfonyl-pyridin-3-yl)-4,5,6,7-tetrahydro-1H-pyrrolo[3,2-c]pyridine] | 0.5 to 1 µM | > 70% |
| Cc1cc(S(C)(=O)=O)ncc1N1CCc2[nH]c(-c3cncc(F)c3C)cc2C1 [Example 96, 2-(5-Fluoro-4-methyl-pyridin-3-yl)-5-(4-methyl-6-methylsulfonyl-pyridin-3-yl)-4,5,6,7-tetrahydro-1H-pyrrolo[3,2-c]pyridine] | 0.5 to 1 µM | > 70% |
| Cc1cc(S(C)(=O)=O)ncc1N1CCc2[nH]c(-c3c(F)cccc3F)c(F)c2C1 [Example 142, 2-(2,6-Difluoro-phenyl)-3-fluoro-5-(4-methyl-6-methylsulfonyl-pyridin-3-yl)-4,5,6,7-tetrahydro-1H-pyrrolo[3,2-c]pyridine] | < 0.5 µM | > 70% |
| Cc1cc([S+](C)[O-])ccc1N1CCc2[nH]c(-c3c(F)cccc3F)cc2C1 (stereo not drawn) [Example 87, 2-(2,6-Difluoro-phenyl)-5-[2-methyl-4-(methylsulfinyl)-phenyl]-4,5,6,7-tetrahydro-1H-pyrrolo[3,2-c]pyridine] | 1 to 5 µM | > 70% |
| Cc1cc(S(=O)(=O)N(C)C)ccc1N1CCc2[nH]c(-c3c(F)cccc3F)cc2C1 [Example 14, 4-[2-(2,6-Difluoro-phenyl)-4,5,6,7-tetrahydro-1H-pyrrolo[3,2-c]pyridin-5-yl]-N,N,3-trimethyl-benzenesulfonic acid amide] | < 0.5 µM | < 50% |
| Cc1sc(-c2ccn(C)n2)nc1N1CCc2[nH]c(-c3c(F)cccc3F)cc2C1 [Example 99, 4-[2-(2,6-Difluoro-phenyl)-4,5,6,7-tetrahydro-1H-pyrrolo[3,2-c]pyridin-5-yl]-5-methyl-2-(1-methyl-1H-pyrazol-3-yl)-thiazole] | < 0.5 µM | > 70% |
| Cn1nc(N2CCc3[nH]c(-c4c(F)cccc4F)cc3C2)cc1C1CC1 [Example 107, 5-(5-Cyclopropyl-1-methyl-1H-pyrazol-3-yl)-2-(2,6-difluoro-phenyl)-4,5,6,7-tetrahydro-1H-pyrrolo[3,2-c]pyridine] | 1 to 5 µM | > 70% |
| Cc1ccc(Cl)cc1N1CCc2[nH]c(-c3c(F)cccc3Cl)cc2C1 [Example 64, 2-(2-Chloro-6-fluoro-phenyl)-5-(5-chloro-2-methyl-phenyl)-4,5,6,7-tetrahydro-1H-pyrrolo[3,2-c]pyridine] | 1 to 5 µM | < 50% |
| Cc1cc(Cl)c(F)cc1N1CCc2[nH]c(-c3c(F)cccc3F)cc2C1 [Example 71, 5-(4-Chloro-5-fluoro-2-methyl-phenyl)-2-(2,6-difluoro-phenyl)-4,5,6,7-tetrahydro-1H-pyrrolo[3,2-c]pyridine] | 1 to 5 µM | < 50% |
| Cc1cc(S(C)(=O)=O)ccc1N1CCc2[nH]c(-c3c(F)cccc3F)cc2C1 [Example 88, 2-(2,6-Difluoro-phenyl)-5-(2-methyl-4-methylsulfonyl-phenyl)-4,5,6,7-tetrahydro-1H-pyrrolo[3,2-c]pyridine] | < 0.5 µM | 50 to 70% |
| Cc1cc(S(=O)(=O)N2CCCCC2)ccc1N1CCc2[nH]c(-c3c(F)cccc3F)cc2C1 [Example 119, 2-(2,6-Difluoro-phenyl)-5-[2-methyl-4-(piperidin-1-ylsulfonyl)-phenyl]-4,5,6,7-tetrahydro-1H-pyrrolo[3,2-c]pyridine] | 1 to 5 µM | < 50% |
| Cc1cc(Cl)ncc1N1CCc2[nH]c(-c3c(F)cccc3F)cc2C1 [Example 4, 5-(6-Chloro-4-methyl-pyridin-3-yl)-2-(2,6-difluoro-phenyl)-4,5,6,7-tetrahydro-1H-pyrrolo[3,2-c]pyridine] | < 0.5 µM | > 70% |
| Cc1sc(-c2cccnc2)nc1N1CCc2[nH]c(-c3c(F)cccc3F)cc2C1 [Example 2, 4-[2-(2,6-Difluoro-phenyl)-4,5,6,7-tetrahydro-1H-pyrrolo[3,2-c]pyridin-5-yl]-5-methyl-2-pyridin-3-yl-thiazole] | < 0.5 µM | > 70% |
| Cc1cc(S(C)(=O)=O)ncc1N1CCc2[nH]c(C3CCCC3)cc2C1 [Example 118, 2-Cyclopentyl-5-(4-methyl-6-methylsulfonyl-pyridin-3-yl)-4,5,6,7-tetrahydro-1H-pyrrolo[3,2-c]pyridine] | 1 to 5 µM | > 70% |
| Cn1nc(C(F)(F)F)cc1N1CCc2[nH]c(-c3c(F)cccc3F)cc2C1 [Example 19, 2-(2,6-Difluoro-phenyl)-5-[2-methyl-5-(trifluoromethyl)-2H-pyrazol-3-yl]-4,5,6,7-tetrahydro-1H-pyrrolo[3,2-c]pyridine] | < 0.5 µM | > 70% |
| Cc1sc(-c2cccnc2)nc1N1CCc2[nH]c(-c3c(F)cccc3F)c(I)c2C1 [Example 66, 4-[2-(2,6-Difluoro-phenyl)-3-iodo-4,5,6,7-tetrahydro-1H-pyrrolo[3,2-c]pyridin-5-yl]-5-methyl-2-pyridin-3-yl-thiazole] | 1 to 5 µM | < 50% |
| Cc1cc(C(F)(F)F)ncc1N1CCc2[nH]c(C3CCCCC3)cc2C1 [Example 97, 2-Cyclohexyl-5-[4-methyl-6-(trifluoromethyl)-pyridin-3-yl]-4,5,6,7-tetrahydro-1H-pyrrolo[3,2-c]pyridine] | 1 to 5 µM | 50 to 70% |
| Cc1cc(S(=O)(=O)C(F)(F)F)ccc1N1CCc2[nH]c(-c3c(F)cccc3F)cc2C1 [Example 86, 2-(2,6-Difluoro-phenyl)-5-[2-methyl-4-(trifluoromethylsulfonyl)-phenyl]-4,5,6,7-tetrahydro-1H-pyrrolo[3,2-c]pyridine] | 1 to 5 µM | < 50% |
| CNS(=O)(=O)c1ccc(N2CCc3[nH]c(C4CCCCC4)cc3C2)c(C)c1 [Example 129] | 1 to 5 µM | < 50% |
| Cc1cc(S(C)(=O)=O)ncc1N1CCc2[nH]c(C3CCC(F)(F)CC3)cc2C1 [Example 122, 2-(4,4-Difluoro-cyclohexyl)-5-(4-methyl-6-methylsulfonyl-pyridin-3-yl)-4,5,6,7-tetrahydro-1H-pyrrolo[3,2-c]pyridine] | 1 to 5 µM | 50 to 70% |
| Cc1cc(S(C)(=O)=O)ncc1N1CCc2[nH]c(C3CCCOC3)cc2C1 (stereo not drawn) [Example 115, 5-(4-Methyl-6-methylsulfonyl-pyridin-3-yl)-2-tetrahydro-pyran-3-yl-4,5,6,7-tetrahydro-1H-pyrrolo[3,2-c]pyridine] | 1 to 5 µM | < 50% |
| Cc1cc(C(F)(F)F)ncc1N1CCc2[nH]c(C3CCOCC3)cc2C1 [Example 93, 5-[4-Methyl-6-(trifluoromethyl)-pyridin-3-yl]-2-tetrahydro-pyran-4-yl-4,5,6,7-tetrahydro-1H-pyrrolo[3,2-c]pyridine] | 1 to 5 µM | > 70% |
| Cc1sc(-c2ccncc2)nc1N1CCc2[nH]c(-c3c(F)cccc3F)cc2C1 [Example 24, 4-[2-(2,6-Difluoro-phenyl)-4,5,6,7-tetrahydro-1H-pyrrolo[3,2-c]pyridin-5-yl]-5-methyl-2-pyridin-4-yl-thiazole] | < 0.5 µM | > 70% |
| Cc1cc(S(C)(=O)=O)ncc1N1CCc2[nH]c(-c3cccnc3C)cc2C1 [Example 83, 5-(4-Methyl-6-methylsulfonyl-pyridin-3-yl)-2-(2-methyl-pyridin-3-yl)-4,5,6,7-tetrahydro-1H-pyrrolo[3,2-c]pyridine] | 1 to 5 µM | > 70% |
| COc1cc(S(C)(=O)=O)ccc1N1CCc2[nH]c(-c3c(F)cccc3F)cc2C1 [Example 28, 2-(2,6-Difluoro-phenyl)-5-(2-methoxy-4-methylsulfonyl-phenyl)-4,5,6,7-tetrahydro-1H-pyrrolo[3,2-c]pyridine] | 0.5 to 1 µM | > 70% |
| Cc1cc(C)c(-c2cc3c([nH]2)CCN(c2cnc(S(C)(=O)=O)cc2C)C3)cn1 [Example 92, 2-(4,6-Dimethyl-pyridin-3-yl)-5-(4-methyl-6-methylsulfonyl-pyridin-3-yl)-4,5,6,7-tetrahydro-1H-pyrrolo[3,2-c]pyridine] | 1 to 5 µM | > 70% |
| Cc1cc(C#N)cnc1N1CCc2[nH]c(-c3c(F)cccc3F)cc2C1 [Example 68, 6-[2-(2,6-Difluoro-phenyl)-4,5,6,7-tetrahydro-1H-pyrrolo[3,2-c]pyridin-5-yl]-5-methyl-nicotinonitrile] | < 0.5 µM | > 70% |
| Cc1cc(S(C)(=O)=O)ncc1N1CCc2[nH]c(-c3ccncc3F)cc2C1 [Example 90, 2-(3-Fluoro-pyridin-4-yl)-5-(4-methyl-6-methylsulfonyl-pyridin-3-yl)-4,5,6,7-tetrahydro-1H-pyrrolo[3,2-c]pyridine] | 1 to 5 µM | > 70% |
| CCOc1cc(C(F)(F)F)c(N2CCc3[nH]c(-c4c(F)cccc4F)cc3C2)cn1 [Example 100, 2-(2,6-Difluoro-phenyl)-5-[6-ethoxy-4-(trifluoromethyl)-pyridin-3-yl]-4,5,6,7-tetrahydro-1H-pyrrolo[3,2-c]pyridine] | 1 to 5 µM | < 50% |
| CCNS(=O)(=O)c1ccc(N2CCc3[nH]c(-c4c(F)cccc4F)cc3C2)c(C)c1 [Example 131, 4-[2-(2,6-Difluoro-phenyl)-4,5,6,7-tetrahydro-1H-pyrrolo[3,2-c]pyridin-5-yl]-N-ethyl-3-methyl-benzenesulfonic acid amide] | 1 to 5 µM | < 50% |
